Publication PMC7614687, “Modulation of the substrate specificity of the kinase PDK1 by distinct conformations of the full-length protein*” (Science signaling, 2023)

Target: T1, GST-PDK1_1-556 (Homo sapiens, UniProt O15530)
T1 construct: made in house; host or cells: HEK293 cells (transient transfection of pEBG2T); peptide synthesized by Pepscan
T1 sequence (O15530 1-556): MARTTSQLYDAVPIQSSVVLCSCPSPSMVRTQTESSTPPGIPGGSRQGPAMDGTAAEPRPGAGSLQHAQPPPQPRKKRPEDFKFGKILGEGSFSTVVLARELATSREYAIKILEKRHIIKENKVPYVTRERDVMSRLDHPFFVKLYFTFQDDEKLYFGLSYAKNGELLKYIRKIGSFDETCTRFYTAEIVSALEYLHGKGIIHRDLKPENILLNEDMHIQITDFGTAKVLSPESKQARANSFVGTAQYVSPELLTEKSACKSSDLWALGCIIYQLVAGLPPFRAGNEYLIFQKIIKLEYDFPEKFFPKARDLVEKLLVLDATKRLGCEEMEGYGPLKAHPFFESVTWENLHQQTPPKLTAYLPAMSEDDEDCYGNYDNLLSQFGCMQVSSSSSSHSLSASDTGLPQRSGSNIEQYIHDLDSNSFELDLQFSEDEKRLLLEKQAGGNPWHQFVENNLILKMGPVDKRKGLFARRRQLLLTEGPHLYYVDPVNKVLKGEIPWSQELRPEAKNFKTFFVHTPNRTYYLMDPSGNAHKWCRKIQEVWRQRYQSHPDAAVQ
Experiment: AlphaScreen biotin-GS-022 / GST-PDK1_1-556 interaction
Assay type: binding
Description: 163 independent experiments. (F-G) Interaction and displacement of interactions using
164 AlphaScreen technlology. (F) Interaction of biotin-GS-022 with GST-PDK11-556 and GST-
165 PDK11-359. N=2 independent experiments. (G) Effect of HYG8 on the interaction between
166 biotin-GS-022 and GST-PDK11-556. N=2 independent experiments.
167 The Thermo Fisher Scientific “PDK1 Direct” assay produced results quite different from those
168 obtained using our PDK1 kinase assay which uses [γ32P]ATP and T308tide
169 ([…]) as substrates. Phosphorylation of T308tide and of the alternative
170 peptides GS-022 ([…]) and GS-023 ([…]-K(5-FAM)) was
171 compared. GS-023 and GS-022 were phosphorylated efficiently by GST-PDK11-556, with over
172 30 and 10-fold higher turnover than T308tide, respectively (fig. S2A). The increased
174 GS-023 peptide provided a degree of improvement of substrate phosphorylation by PDK11-
175 556. GST-PDK11-359, comprising only the catalytic domain but lacking the linker region and the
176 PH domain, phosphorylated the three substrates similarly, with a slight increased turnover
177 towards GS-023 (fig. S2B). Thus, the phosphorylation of GS-23 and GS-022, but not that of
178 T308tide, depended on the construct used (figs. S2C-E). To assess a possible differential […]
180 that measured the interaction of biotin-GS-022 with GST-PDK11-556 and GST-PDK11-359. […]

SMILES: O=C(O[C@H]1[C@@H](OP(=O)(O)O)[C@H](OP(=O)(O)O)[C@@H](OP(=O)(O)O)[C@H](OP(=O)(O)O)[C@H]1OP(=O)(O)O)c1ccccc1 [HYG8, 2-O-benzoyl-IP5]
- effect on interaction between GS-022 and PDK1_1-556: potently
